# Laboratory results taken from PubChem BioAssay AID1963981 (Molecular Pharmacology Branch, DTP, NCI, 2024).
# System: 354836-022-R-J1-PDC multicell spheroid viability
# Assay: Anticancer human tumor 354836-022-R-J1-PDC patient-derived head and neck squamous cell carcinoma cell line growth inhibition [PI3K]
# Settings: for IC50: curve of first compound; for viability, T/C: stronger effect = lower value
# Procedure, shortened: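 High-throughput combination screen: PI3K inhibitors crossed with targeted small molecules on complex spheroids of tumor cells, HUVEC and MSCs at 37 degrees C, 5% CO2. Top concentration was at or near clinical Cmax (otherwise 10 microM), with half-log decrements.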
# [1] = second compound 0.0316 µM, first compound 0.0316 µM
# [2] = second compound 0.0316 µM, first compound 0.1 µM
# [3] = second compound 0.0316 µM, first compound 0.316 µM
# [4] = second compound 0.0316 µM, first compound 1 µM
# [5] = second compound 0.0316 µM, first compound 3.16 µM
# [6] = second compound 0.0316 µM, first compound 10 µM
# [7] = second compound 0.1 µM, first compound 0.0316 µM
# [8] = second compound 0.1 µM, first compound 0.1 µM
# [9] = second compound 0.1 µM, first compound 0.316 µM
# [10] = second compound 0.1 µM, first compound 1 µM
# [11] = second compound 0.1 µM, first compound 3.16 µM
# [12] = second compound 0.1 µM, first compound 10 µM
# [13] = second compound 0.316 µM, first compound 0.0316 µM
# [14] = second compound 0.316 µM, first compound 0.1 µM
# [15] = second compound 0.316 µM, first compound 0.316 µM
# [16] = second compound 0.316 µM, first compound 1 µM
# [17] = second compound 0.316 µM, first compound 3.16 µM
# [18] = second compound 0.316 µM, first compound 10 µM
# [19] = second compound 1 µM, first compound 0.0316 µM
# [20] = second compound 1 µM, first compound 0.1 µM
# [21] = second compound 1 µM, first compound 0.316 µM
# [22] = second compound 1 µM, first compound 1 µM
# [23] = second compound 1 µM, first compound 3.16 µM
# [24] = second compound 1 µM, first compound 10 µM
# [25] = second compound 3.16 µM, first compound 0.0316 µM
# [26] = second compound 3.16 µM, first compound 0.1 µM
# [27] = second compound 3.16 µM, first compound 0.316 µM
# [28] = second compound 3.16 µM, first compound 1 µM
# [29] = second compound 3.16 µM, first compound 3.16 µM
# [30] = second compound 3.16 µM, first compound 10 µM
# [31] = second compound 10 µM, first compound 0.0316 µM
# [32] = second compound 10 µM, first compound 0.1 µM
# [33] = second compound 10 µM, first compound 0.316 µM
# [34] = second compound 10 µM, first compound 1 µM
# [35] = second compound 10 µM, first compound 3.16 µM
# [36] = second compound 10 µM, first compound 10 µM
# 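Further: spheroids exposed to agents for seven days before the viability read.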
smiles,measurement,setting,value
CC1(C)CCC(Nc2ncc(C(F)(F)F)c(-c3c[nH]c4c(P(C)(C)=O)c(C#N)ccc34)n2)CN1 (stereo unspecified) + CC(Nc1ncnc2nc[nH]c12)c1cc2cccc(Cl)c2c(=O)n1-c1ccccc1,IC50,second compound 0.0316 µM,< 31.6 nM
same,IC50,second compound 0.1 µM,< 31.6 nM
same,IC50,second compound 0.316 µM,< 31.6 nM
same,IC50,second compound 1 µM,< 31.6 nM
same,IC50,second compound 3.16 µM,< 31.6 nM
same,IC50,second compound 10 µM,< 31.6 nM
same,"viability, T/C",[1],13.4%
same,"viability, T/C",[2],10.9%
same,"viability, T/C",[3],15.2%
same,"viability, T/C",[4],12.4%
same,"viability, T/C",[5],13.8%
same,"viability, T/C",[6],1.65%
same,"viability, T/C",[7],12.6%
same,"viability, T/C",[8],13.2%
same,"viability, T/C",[9],15.7%
same,"viability, T/C",[10],16%
same,"viability, T/C",[11],16.1%
same,"viability, T/C",[12],2.44%
same,"viability, T/C",[13],11.3%
same,"viability, T/C",[14],13.9%
same,"viability, T/C",[15],12.4%
same,"viability, T/C",[16],14.8%
same,"viability, T/C",[17],14%
same,"viability, T/C",[18],2.31%
same,"viability, T/C",[19],12.3%
same,"viability, T/C",[20],13.2%
same,"viability, T/C",[21],14%
same,"viability, T/C",[22],14.3%
same,"viability, T/C",[23],16.8%
same,"viability, T/C",[24],1.85%
same,"viability, T/C",[25],10.7%
same,"viability, T/C",[26],13.8%
same,"viability, T/C",[27],13.7%
same,"viability, T/C",[28],15%
same,"viability, T/C",[29],16%
same,"viability, T/C",[30],1.2%
same,"viability, T/C",[31],17%
same,"viability, T/C",[32],16.9%
same,"viability, T/C",[33],14.9%
same,"viability, T/C",[34],21.3%
same,"viability, T/C",[35],16.8%
same,"viability, T/C",[36],0.91%
Cn1ncc(Cl)c1-c1cc(C(=O)NC(CN)Cc2cccc(F)c2)sc1Cl (stereo unspecified) + CC(Nc1ncnc2nc[nH]c12)c1cc2cccc(Cl)c2c(=O)n1-c1ccccc1,IC50,second compound 0.0316 µM,100 nM
same,IC50,second compound 0.1 µM,168 nM
same,IC50,second compound 0.316 µM,112 nM
same,IC50,second compound 1 µM,162 nM
same,IC50,second compound 3.16 µM,215 nM
same,IC50,second compound 10 µM,145 nM
same,"viability, T/C",[1],74.6%
same,"viability, T/C",[2],48.9%
same,"viability, T/C",[3],31.8%
same,"viability, T/C",[4],15.1%
same,"viability, T/C",[5],5.4%
same,"viability, T/C",[6],1.88%
same,"viability, T/C",[7],70.7%
same,"viability, T/C",[8],61.4%
same,"viability, T/C",[9],36.3%
same,"viability, T/C",[10],17.7%
same,"viability, T/C",[11],5.21%
same,"viability, T/C",[12],1.62%
same,"viability, T/C",[13],74.1%
same,"viability, T/C",[14],52.5%
same,"viability, T/C",[15],30.3%
same,"viability, T/C",[16],17.8%
same,"viability, T/C",[17],5.75%
same,"viability, T/C",[18],1.5%
same,"viability, T/C",[19],65.6%
same,"viability, T/C",[20],67%
same,"viability, T/C",[21],29.6%
same,"viability, T/C",[22],19.3%
same,"viability, T/C",[23],5.53%
same,"viability, T/C",[24],1.8%
same,"viability, T/C",[25],75.6%
same,"viability, T/C",[26],68.1%
same,"viability, T/C",[27],39.5%
same,"viability, T/C",[28],20.9%
same,"viability, T/C",[29],7.18%
same,"viability, T/C",[30],2.1%
same,"viability, T/C",[31],70.8%
same,"viability, T/C",[32],59.7%
same,"viability, T/C",[33],31.8%
same,"viability, T/C",[34],18.9%
same,"viability, T/C",[35],8.1%
same,"viability, T/C",[36],2.22%
Cn1nccc1Nc1nccc(-c2ccn(C(CO)c3ccc(Cl)c(F)c3)c(=O)c2)n1 (stereo unspecified) + CC(Nc1ncnc2nc[nH]c12)c1cc2cccc(Cl)c2c(=O)n1-c1ccccc1,IC50,second compound 0.0316 µM,> 10000 nM
same,IC50,second compound 0.1 µM,> 10000 nM
same,IC50,second compound 0.316 µM,> 10000 nM
same,IC50,second compound 1 µM,> 10000 nM
same,IC50,second compound 3.16 µM,> 10000 nM
same,IC50,second compound 10 µM,> 10000 nM
same,"viability, T/C",[1],107%
same,"viability, T/C",[2],107%
same,"viability, T/C",[3],103%
same,"viability, T/C",[4],94.9%
same,"viability, T/C",[5],89.3%
same,"viability, T/C",[6],90.5%
same,"viability, T/C",[7],108%
same,"viability, T/C",[8],110%
same,"viability, T/C",[9],94.3%
same,"viability, T/C",[10],104%
same,"viability, T/C",[11],91.2%
same,"viability, T/C",[12],96.4%
same,"viability, T/C",[13],113%
same,"viability, T/C",[14],93.5%
same,"viability, T/C",[15],87.2%
same,"viability, T/C",[16],106%
same,"viability, T/C",[17],100%
same,"viability, T/C",[18],94.9%
same,"viability, T/C",[19],117%
same,"viability, T/C",[20],95.5%
same,"viability, T/C",[21],111%
same,"viability, T/C",[22],118%
same,"viability, T/C",[23],101%
same,"viability, T/C",[24],78.2%
same,"viability, T/C",[25],94.4%
same,"viability, T/C",[26],91.6%
same,"viability, T/C",[27],99.3%
same,"viability, T/C",[28],97.3%
same,"viability, T/C",[29],107%
same,"viability, T/C",[30],88.1%
same,"viability, T/C",[31],88.3%
same,"viability, T/C",[32],103%
same,"viability, T/C",[33],95.3%
same,"viability, T/C",[34],85.4%
same,"viability, T/C",[35],94%
same,"viability, T/C",[36],76.1%
